The subject of data set [1] is Caco-2 colorectal adenocarcinoma cells. Briefly: Neutral red (NR) uptake cytotoxicity assay, Caco-2. To be noted: read-out: IC50 values, Caco-2.
Excerpt: (§3) Four human carcinoma cell lines and one normal cell line were used. They were: DLD-1 and Caco-2 colorectal adenocarcinoma cell lines, HepG2 hepatocarcinoma cells, MCF-7 breast adenocarcinoma cells and the normal CRL2120 human skin fibroblasts. Caco-2 cells (from the ŞAP Institute of Ankara,Turkey andMCF-7 cells (from ATCC) provided by Prof. Dr. Tansu Koparal (Anadolu University, Eskisehir, Turkey),HepG2, DLD-1 and CRL2120 cells were obtained from American Type Culture Collection (ATCC); DMEM medium (Sigma-aldrich, Munich, Germany) was used to maintain cells as a monolayer and was supplemented with 10% fetal calf serum and 1% penicillin (100 U/mL)-streptomycin (100 μg/mL) in a humidified 5% CO2 atmosphere at 37 °C.
(§4) Dimethylsufoxide (DMSO) at less than 0.1% final concentration was used to dilute the tested samples. DMSO at 0.1% was used as solvent control. The incubation time was 72 h incubation in humidified 5% CO2 atmosphere at 37 °C, followed by NR coloration as previously described [23, 24]. ELx 808 Ultra Microplate Reader (Biotek) equipped with a 540 nm filter was used to measure the absorbance. Each experiment was performed at least three times, with three replicates each. The viability was evaluated based on a comparison with untreated cells. The IC50 values represented the sample’s concentrations required to inhibit 50% of cell proliferation and were calculated from a calibration curve by linear regression using Microsoft Excel [26] as follows: for each sample, the cell growth percentages at the different concentrations were used to draw the calibration curve with logarithmic regression obtained by 2 measuring points (one smaller and one larger than 50%) from where the IC50 value was deduced.
Data set [2] has as its system DLD-1 colorectal adenocarcinoma cells. Briefly: Neutral red (NR) uptake cytotoxicity assay, DLD-1. It counts as cell-based, human. To be noted: for IC50: Homo sapiens, DLD-1, NR assay, 72 h incubation; for selectivity index, DLD-1: IC50 in CRL2120 normal fibroblasts divided by IC50 in DLD-1. The text has this:
(§1) DMSO at 0.1% was used as solvent control.

Another data set is described as follows: in vitro. To be noted: human, Caco-2.
In data set [3] the test system is MCF-7 breast adenocarcinoma cells. Kind of data set: Neutral red (NR) uptake cytotoxicity assay, MCF7. Format: cell-based, human. The settings on record: for IC50: Homo sapiens, MCF7, NR assay, 72 h incubation; for selectivity index, MCF7: IC50 in CRL2120 normal fibroblasts divided by IC50 in MCF7.
Excerpt: as §1

The test system of data set [4] is normal CRL2120 human skin fibroblasts. Kind of data set: Neutral red (NR) uptake cytotoxicity assay, normal fibroblasts. The settings on record: Skin fibroblast, 72 h incubation. It counts as cell-based.
Excerpt: as §1

The test system of data set [5] is HepG2 hepatocarcinoma cells. Kind of data set: Neutral red (NR) uptake cytotoxicity assay, HepG2. Format: cell-based, human. The settings on record: for IC50: Homo sapiens, HepG2, NR assay, 72 h incubation; for selectivity index, HepG2: IC50 in CRL2120 normal fibroblasts divided by IC50 in HepG2.
Excerpt: as §1

Data set [6] deals with four tested cancer cell lines (MCF-7, DLD-1, Caco-2, HepG2). Briefly: Neutral red (NR) uptake cytotoxicity assay, summary over the four tested cancer cell lines. It counts as cell-based. To be noted: Homo sapiens.
Excerpt: as §1

Data set [7] can be described thus: Neutral red (NR) uptake cytotoxicity assay, Caco-2. To be noted: human, Caco-2.
Excerpt: as §3, §4
The test system of data set [8] is MCF-7 cells. Briefly: Cell cycle analysis and detection of apoptosis by flow cytometry. Format: cell-based, human. To be noted: for percentages of cells in sub-G0/G1 phase: MCF-7, 2 × IC50 (as printed in text); for percentages of cells in sub-G0/G1 phase / Growth (percentage of control) Sub-G0; percentage of cells in sub-G0/G1 phase: non-treated cells 3.1%; for Growth (percentage of control) Sub-G0; percentage of cells in sub-G0/G1 phase: MCF-7, 72 h, ¼ x IC50; for cell cycle arrest (phase): MCF-7 cells, 72 h. On the procedure:
Cells were tested in 6-well plates (3 mL, 1 × 10^5 cells/mL) and the incubation time was 72 h in humidified 5% CO2 atmosphere at 37 °C. […] Untreated cells (control) were used for comparison with treated cells. The BD FACS Aria I Cell Sorter Flow Cytometer (Becton-Dickinson, Germany) was then used for cell cycle analysis. For each sample, 10^4 cells were counted. For PI excitation, an argon-ion laser emitting at 488 nm was used. Cytographs were analyzed using BD FACSDiva™ Flow Cytometry Software Version 6.1.2 (Becton-Dickinson).
On the technique in general: A flow cytometer gives signals particle by particle.

The test system of data set [9] is MCF-7 cells. Kind of data set: Integrity of mitochondrial membrane potential (JC-1 staining, flow cytometry). To be noted: MCF-7, 72 h, IC50; control 6.0%. Format: cell-based, human. On the procedure: Cells were tested in 6-well plates (3 mL, 1 × 10^5 cells/mL) and the incubation time was 72 h in humidified 5% CO2 atmosphere at 37 °C. The tested concentrations were ¼ × IC50, ½ × IC50 and IC50. Untreated cells (control) were used for comparison with treated cells. JC-1 staining was performed according to the manufacturer’s protocol as reported previously. Cells were then measured in a BD FACS Aria I Cell Sorter Flow Cytometer (Becton-Dickinson, Germany). The JC-1 signal was measured at an excitation wavelength of 561 nm (150 mW) and detected using a 586/15 nm band-pass filter. The signal was analyzed at an excitation wavelength of 640 nm (40 mW) and detected using a 730/45 nm bandpass filter. Cytographs were analyzed using BD FACSDiva™ Flow Cytometry Software Version 6.1.2 (Becton-Dickinson). All experiments were performed at least in triplicates.

Data set [10] concerns caspases 3/7 in MCF-7 cells. Kind of data set: Caspase-Glo 3/7 assay. It counts as cell-based, human. The settings on record: MCF-7, 6 h, optimal activity generally at IC50, vs untreated control. The text has this:
(§2) The BioTek Synergy™ HT multi-detection microplate reader was used to measure the luminescence and Caspase activity was expressed as percentage of the untreated control.

The subject of data set [11] is MCF-7 cells. Briefly: Reactive oxygen species production (H2DCFH-DA). To be noted: MCF-7, 24 h, at IC50, compared to non-treated cells. Format: cell-based, human. On the procedure: Cells were tested in 6-well plates (3 mL, 1 × 10^5 cells/mL) and the incubation time was 24 h in humidified 5% CO2 atmosphere at 37 °C. The tested concentrations were ¼ × IC50, ½ × IC50 and IC50. Untreated cells (control) were used for comparison with treated cells. The fluorescence was measured using SpectraMax® M5 Microplate Reader (Molecular Devices, Biberach, Germany) at 480/530 nm. All experiments were performed at least in triplicates.

Another data set deals with caspase 9 in MCF-7 cells. Kind of data set: Caspase-Glo 9 assay. To be noted: MCF-7, 6 h, optimal activity generally at IC50, vs untreated control. It counts as cell-based, human.
Excerpt: as §2

Where [12] appears, read: all 4/4 tested cancer cell lines, read-out: IC50 values against the four tested cancer cell lines.

Read-outs that look alike come from different tables or passages of the source.

Excerpt for in vitro: as §3, §4

Take `C=C(C)[C@@H]1CC[C@@]2(C)C1C1CCC3[C@@]4(C)CC[C@H](O)C(C)(C)C4CC[C@@]3(C)[C@]1(C)C[C@@H]2O` (stereo partly drawn) [Compound 3, 16β-hydroxylupeol]: the IC50 is 20.8 ± 1.53 µM in data set [1] (Homo sapiens, Caco-2, 72 h); 15.4 ± 0.96 µM in data set [2]; 9.12 ± 1.02 µM in [3]; 52.6 ± 5.11 µM in data set [4]; 35.6 ± 3.29 µM in data set [5]; < 85 µM in data set [6] (setting [12]). In data set [2], the “selectivity index, DLD-1” value turned out to be 3.41. Further, the selectivity ratio at 72 h in “in vitro” was 2.53. Besides, in data set [3], the “selectivity index, MCF7” value is 5.76. In addition, the “selectivity index, HepG2” value in [5] turned out to be 1.47.

For the compound `COc1cc2c(c(O)c1CC=C(C)C)C(=O)[C@H](O)[C@@H](c1ccc(O)cc1)O2` [Compound 9, thonningiol], the IC50 in [1] (Homo sapiens, Caco-2, 72 h) was 5.28 ± 0.06 µM. Moreover, the selectivity ratio at 72 h in [7] was 8.6. For the same compound, in the data set on MCF-7 cells [8], the “percentages of cells in sub-G0/G1 phase” value came out at 28.3%, the “Growth (percentage of control) Sub-G0; percentage of cells in sub-G0/G1 phase” value (shortened to “Growth (percentage of control) Sub-G0”) came out at 11.6% and the “cell cycle arrest (phase)” value is given as “Go/G1”. In data set [2], the IC50 came out at 5.65 ± 0.03 µM and the “selectivity index, DLD-1” value is recorded as 8.05. Besides, the “P2: cells with altered MMP (MMP depletion)” value (shortened to “P2: cells with altered MMP”) with MCF-7 cells [9] was 11.2%. The “increase of caspases 3/7 activity” value in data set [10] came to 3.97 fold. In [3], the IC50 stood at 0.36 ± 0.01 µM and the “selectivity index, MCF7” value is given as 124.59. Further, the “increase in ROS levels” value with MCF-7 cells [11] is 4.46 fold. For the same compound, the “increase of caspase 9 activity” value in the data set on caspase 9 in MCF-7 cells was 2.67 fold. Further, the IC50 in data set [4] came out at 45.5 ± 4.17 µM. In addition, in data set [5], the IC50 stood at 3.88 ± 0.04 µM and the “selectivity index, HepG2” value is reported as 11.72. In data set [6] (setting [12]), the IC50 was < 10 µM.

On to `C=CC(C)(C)c1cc2c(cc1O)OCC1c3ccc(OC)cc3OC21` (centres unmarked) [Compound 13, seputhecarpan D], for which the IC50 in [1] (Homo sapiens, Caco-2, 72 h) is 10.5 ± 0.48 µM; in data set [2], 10.8 ± 1.11 µM; in data set [3], 9.78 ± 0.55 µM; in data set [4], > 118 µM; in data set [5], 67.7 ± 5.18 µM; in data set [6] (3/4 tested cancer cell lines, read-out: IC50 values in 3/4 tested cell lines), < 10 µM. Besides, in data set [7], the selectivity ratio at 72 h was > 11.3. Also, the “percentages of cells in sub-G0/G1 phase” value in the data set on MCF-7 cells [8] turned out to be 31.1%. Moreover, in the data set with MCF-7 cells [8], the “Growth (percentage of control) Sub-G0” value is 7.6%. In the data set on MCF-7 cells [8], the “cell cycle arrest (phase)” value is recorded as “Go/G1”. For the same compound, the “selectivity index, DLD-1” value in data set [2] is listed as > 10.97. Besides, the “P2: cells with altered MMP” value in the data set on MCF-7 cells [9] is recorded as 12.9%. The “increase of caspases 3/7 activity” value in data set [10] was found to be 4.66 fold. The “selectivity index, MCF7” value in [3] is on record as > 12.10. The “increase in ROS levels” value with MCF-7 cells [11] was 3.78 fold. For the same compound, the “increase of caspase 9 activity” value with caspase 9 in MCF-7 cells is 3.47 fold.

Regarding `COc1cccc2c1C(=O)c1c(O)c3c(c(O)c1C2=O)C[C@@](O)(C(=O)CO)C[C@@H]3O[C@H]1C[C@H](N)[C@H](O)[C@H](C)O1` [Doxorubicin, doxorubicin, reference compound], the IC50 was 0.72 ± 0.13 µM in [1] (NR assay, 72 h incubation); 0.37 ± 0.05 µM in data set [2]; 0.35 ± 0.05 µM in [3]; 0.59 ± 0.01 µM in [4]; 0.18 ± 0.03 µM in data set [5]. In addition, the “percentages of cells in sub-G0/G1 phase” value with MCF-7 cells [8] is on record as 60%. In addition, in the data set with MCF-7 cells [8], the “Growth (percentage of control) Sub-G0” value amounted to 27.6%. For the same compound, in the data set on MCF-7 cells [9], the “P2: cells with altered MMP” value was “up to 26.0%”. Besides, in the data set with MCF-7 cells [11], the “increase in ROS levels” value came out at 2.40 fold. For the same compound, in the data set on caspase 9 in MCF-7 cells, the “increase of caspase 9 activity” value was 1.3 fold.

Source of the values: paper PMC5789597, “Cytotoxicity of seputhecarpan D, thonningiol and 12 other phytochemicals from African flora towards human carcinoma cells” (BMC Complementary and Alternative Medicine, 2018).
